Measured values: patent publication US20050250738A1, “Taste-masked formulations containing sertraline and sulfoalkyl ether cyclodextrin” (priority 2004, published 2005)

Tests used:
[1] = Solubility of sertraline HCl versus pH in SBE-β-CD solutions; type: physicochemical; conditions: 0, 10% or 20% sulfobutylether-β-cyclodextrin (DS=6.7), buffers pH 1, 3, 5, 7
Method: Aqueous 0.01M buffers were prepared at pH values of 1 (HCl), 3 and 5 (citric acid/sodium citrate), and 7 (monobasic potassium phosphate) and used to prepare solutions containing 0, 10% or 20% sulfobutylether-β-cyclodextrin (DS=6.7). Excess sertraline HCl was added to each of the solutions and allowed to mix for three days. The solutions were centrifuged and the supernatants analyzed for sertraline content and final pH.

[2] = Phase solubility of sertraline with cyclodextrins; type: physicochemical; conditions: about 25° C., pH not adjusted, higher cyclodextrin concentration (above about 0.08 M)
Method: At lower molar concentrations of cyclodextrin (less than about 0.08 M), the phase solubility curve for each cyclodextrin is very similar.
The phase solubility curves for sertraline with SAE-CD, HP-β-CD and γ-CD were determined according to procedures well known in the art (Higuchi et al. in Phase Solubility Techniques, in Advances in Analytical Chemistry and Instrumentation (Ed. C. N. Reilly, John Wiley & Sons Inc., Vol. 4 (1965), pg. 117-212) the relevant disclosure of which is hereby incorporated by reference). The results are depicted in FIG. 1.

Compound | Effect of solution pH upon solubility [1] | Phase solubility of sertraline with cyclodextrin [2]
CN[C@H]1CC[C@@H](c2ccc(Cl)c(Cl)c2)c2ccccc21 [sertraline, (1S-cis)-4-(3,4-dichlorophenyl)-1,2,3,4-tetrahydro-N-methyl-1-naphthalenamine] | independent of the pH over the range evaluated | –
2-hydroxypropyl-β-cyclodextrin [HP-β-CD] | – | outperform the γ-CD
Sulfobutyl Ether-β-Cyclodextrin [SBE7-β-CD] | – | outperform the γ-CD
